In patent US20040072915A1, “Novel medicines based on sesquiterpene mixtures” (priority 2000, published 2004):

Tested on: MCF7 cells
Assay: Cell counts of MCF7 cells in culture with F, B or F+B (Example 1)
Format: cell-based
Method: Cells of line MCF7 are rapidly growing mammary adenocarcinoma cells. The doses tested in the study were 0.1.10^-3 and 0.5.10^-3 M. 1/100 dilutions were made in RPMT just before use and mixed to obtain a homogeneous emulsion at the moment of use. The mean number of cells inoculated was about 10^6 in each test. Test one: search for an effect on MCF7 cells at the dose of 0.5 mM. At the 11th transfer, the following were inoculated one bottle of MCF7 cells for growth, one bottle of MCF7 cells for the control, one bottle with the same number of calls +(F) at 0.5 mM, one bottle with the same number of cells +(F+B) at 0.5 mM, one bottle with the same number of cells +(B) at 0.5 mM. Bottles were placed in the incubator with caps unscrewed and the medium was changed every two days. On day 8, the cells were washed with 5 ml of PBS and freed from the substrate with PBS-EDTA, […] of RPMI+10% FCS and counted with a Malassez counting chamber. Test two: search of an effect on MCF7 cells at a dose of 0.1 mM. Same procedure as above is used but cells were used at the 12th transfer, using 0.1 mM doses of (F), (F+B) and (B).

[1] = test one, dose 0.5 mM, MCF7 cells counted on day 8, about 10^6 cells inoculated

Row | SMILES | appearance of the culture bottle (adhering / floating dead cells) (test one, 0.5 mM, MCF7) | cell counts [1] | alteration of cell adherence in culture (test run at 0.1 mM, MCF7) | cell counts (test two (test at 0.1 mM), line printed as B at 0.5 mM) | appearance of the culture bottle (adhering / floating dead cells) (test two, 0.1 mM, MCF7) | cell counts (test two, dose 0.1 mM, MCF7 cells counted on day 8, about 10^6 cells inoculated)
1 | CC(C)=CCC[C@](C)(O)[C@@H]1CC=C(C)CC1 [B, α-bisabolol] | few adhering cells and a large numbers of floating (dead) cells | 250 · 10^3 | slight | 8930 · 10^3 | adhering homogeneous layer of cells with several dead cells | 
2 | CC(C)=CCCC(C)=CCCC(C)=CCO [F, Farnesol] | few adhering cells and a large number of floating (dead) cells | 370 · 10^3 |  |  | few adhering cells and a large numbers of floating (dead) cells | 385 · 10^3
